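48-hour exposure; five concentrations; linearly interpolated endpoints. The concentration for full growth arrest is given as TGI.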 A value given as a limit tells only on which side of the number the result lay.

In PubChem BioAssay (NCI) one finds TGI data, which are given here for 16 compounds.

Some test systems named below: SK-MEL-5 melanoma; KM20L2 colon; COLO 205 colon; SF-295 CNS; DLD-1 colon; KM12 colon; DMS 273 small cell lung; LXFL 529 NSCLC; PC-3 prostate; MDA-MB-435; NCI/ADR-RES ovarian.
Holding throughout (assay): growth of human tumour cells (NCI), 48 h

With `O=S1(=O)c2ccccc2N=C(c2ccccc2Cl)CC1c1ccc(F)cc1` (stereo unspecified), the TGI with SK-MEL-5 melanoma was determined as 31.4 µM; in the assay with KM20L2 colon, 37.4 µM; in the assay with COLO 205 colon, 40.3 µM; in the assay on SF-295 CNS it was 34.4 µM; with DLD-1 colon, 28.6 µM; in the assay on KM12 colon, 31.8 µM. The results for the TGI with DMS 273 small cell lung and in the assay with LXFL 529 NSCLC were 45.3 µM and 31.6 µM, respectively.
`COC(=O)/C(=N\Nc1nnc(C)n1N)C(C#N)c1ccccc1` (stereo unspecified): the TGI in the assay on SK-MEL-5 melanoma, in the assay with KM20L2 colon, in the assay with PC-3 prostate, with COLO 205 colon, in the assay with SF-295 CNS and in the assay with DLD-1 colon was over 100 µM throughout. Further, the TGI in the assay with KM12 colon was over 100 µM; in the assay on MDA-MB-435, 32.5 µM; with DMS 273 small cell lung, over 100 µM; with NCI/ADR-RES ovarian it was over 100 µM; in the assay with LXFL 529 NSCLC it was over 100 µM.
On to `CC(=O)NC(CCCN(Cc1ccccc1)C(=O)N(C)N=O)C(=O)NCc1ccccc1` (stereo unspecified), for which the TGI in the assay with SK-MEL-5 melanoma, with KM20L2 colon, with COLO 205 colon, in the assay on SF-295 CNS, in the assay on DLD-1 colon and in the assay with KM12 colon was over 100 µM each time. In addition, the TGI in the assay on DMS 273 small cell lung and with LXFL 529 NSCLC was over 100 µM throughout.
For the compound `CN(C)CN(C)c1nc(N(C)C)nc(N(C)CN(C)C)n1`, the TGI in the assay on SK-MEL-5 melanoma is over 100 µM; in the assay on KM20L2 colon, over 100 µM; with COLO 205 colon, 61.6 µM; in the assay on SF-295 CNS it was over 100 µM; in the assay on DLD-1 colon, over 100 µM; in the assay with KM12 colon, over 100 µM. Moreover, the TGI with DMS 273 small cell lung is 33.3 µM; with LXFL 529 NSCLC it was over 100 µM.
On to `COc1cc(C(C#N)NNc2nc(C)cc(=O)[nH]2)cc(OC)c1OC` (stereo unspecified), for which the TGI in the assay with SK-MEL-5 melanoma, in the assay on KM20L2 colon, in the assay on COLO 205 colon, with SF-295 CNS, in the assay with DLD-1 colon and in the assay on KM12 colon was over 100 µM in each case. Also, the TGI in the assay with DMS 273 small cell lung and in the assay on LXFL 529 NSCLC was over 100 µM in each case.
Consider `O=C(/C=C/C1C(=O)NC(=O)NC1=O)CC(=O)C(=O)Nc1cc(Cl)c(Cl)cc1Cl`, for which the TGI in the assay with SK-MEL-5 melanoma, in the assay with KM20L2 colon, in the assay on COLO 205 colon, with SF-295 CNS, in the assay on DLD-1 colon and in the assay with KM12 colon was over 100 µM in each case. The TGI with DMS 273 small cell lung and in the assay with LXFL 529 NSCLC was over 100 µM each time.
On to `c1ccc(-c2ccnc3c2ccc2c(-c4ccccc4)ccnc23)cc1`, for which the TGI in the assay with SK-MEL-5 melanoma is 11.2 µM; in the assay with KM20L2 colon it was 16.5 µM; in the assay with COLO 205 colon it was 6.71 µM; with DLD-1 colon, 15.3 µM; with KM12 colon, 10.2 µM; in the assay with DMS 273 small cell lung, 9.5 µM. In addition, the TGI in the assay on LXFL 529 NSCLC was determined as 11.5 µM.
With `CC(C)(C)Sc1nnc(SC(C)(C)C)c2c(=O)[nH]nc(SC(C)(C)C)c12`, the TGI came out at 17.2 µM in the assay on SK-MEL-5 melanoma; 22.1 µM in the assay with KM20L2 colon; 25.2 µM in the assay on COLO 205 colon; 23.8 µM in the assay with SF-295 CNS; 22.8 µM in the assay with DLD-1 colon; 25.6 µM in the assay with KM12 colon. Further, the TGI is 21.3 µM in the assay on DMS 273 small cell lung and 23.1 µM in the assay on LXFL 529 NSCLC.
On to `C/C(=N\NS(=O)(=O)c1ccc([N+](=O)[O-])cc1)c1ccc[n+]([O-])n1`, for which the TGI worked out at 5.97 µM with SK-MEL-5 melanoma; 19.5 µM in the assay on KM20L2 colon; 6.56 µM in the assay on COLO 205 colon; 7.05 µM in the assay on SF-295 CNS; 20.3 µM in the assay on DLD-1 colon; 33.8 µM in the assay with KM12 colon. The TGI worked out at 2.74 µM in the assay on DMS 273 small cell lung and 6.7 µM in the assay on LXFL 529 NSCLC.
Consider `CCOC(=O)CC(NC(=O)c1ccc(N=NN(C)C)cc1)C(=O)OCC` (stereo unspecified), for which the TGI in the assay on SK-MEL-5 melanoma, with COLO 205 colon, in the assay with SF-295 CNS, with DLD-1 colon, with KM12 colon and with DMS 273 small cell lung was over 100 µM each time. For the same compound, the TGI with LXFL 529 NSCLC was over 100 µM.
With `O=c1c2ccccc2nc(-c2ccccc2)n1NC(=S)Nc1cccc(Cl)c1`, the TGI in the assay with SK-MEL-5 melanoma, with COLO 205 colon, in the assay with SF-295 CNS, with DLD-1 colon, in the assay on KM12 colon and in the assay on DMS 273 small cell lung was over 100 µM in each case. The same compound displayed a TGI with LXFL 529 NSCLC of over 100 µM.
With `COc1ccc(C)cc1C1CCC(=O)O1` (stereo unspecified), the TGI with SK-MEL-5 melanoma, with KM20L2 colon, with COLO 205 colon, in the assay with SF-295 CNS, with DLD-1 colon and in the assay with KM12 colon was over 100 µM throughout. Besides, the TGI in the assay with DMS 273 small cell lung and with LXFL 529 NSCLC was over 100 µM throughout.
Consider `O=C1CCC(=O)c2sccc2N1`, for which the TGI in the assay on SK-MEL-5 melanoma, in the assay on KM20L2 colon, in the assay with COLO 205 colon, in the assay on SF-295 CNS, with DLD-1 colon and with KM12 colon was over 100 µM in each case. For the same compound, the TGI in the assay with DMS 273 small cell lung and with LXFL 529 NSCLC was over 100 µM in each case.
As for `Cn1nc(-c2ccccc2)c(C(=O)/C=C/c2ccc(Cl)cc2)c(N2CCCC2)c1=O`, the TGI was 18.6 µM with SK-MEL-5 melanoma; 15.1 µM with KM20L2 colon; 4.07 µM in the assay with COLO 205 colon; 11.6 µM in the assay on SF-295 CNS; 10.8 µM in the assay with DLD-1 colon; 24.2 µM in the assay on DMS 273 small cell lung. This compound had a TGI with LXFL 529 NSCLC of 13 µM.
Consider `COc1ccc2c(c1)c1c3n2CCNN=C3CCC1`, for which the TGI with SK-MEL-5 melanoma, in the assay on KM20L2 colon, in the assay on COLO 205 colon, with SF-295 CNS, in the assay on DLD-1 colon and with KM12 colon was over 100 µM throughout. For the same compound, the TGI in the assay on DMS 273 small cell lung and with LXFL 529 NSCLC was over 100 µM throughout.
For `CCCCNC1=C(C(=O)OCC)/C(=N/NC(=O)c2ccccc2O)CO1`, the TGI in the assay on SK-MEL-5 melanoma, in the assay with KM20L2 colon, with COLO 205 colon, in the assay with SF-295 CNS, in the assay on DLD-1 colon and in the assay on KM12 colon was over 100 µM throughout. In the assay on LXFL 529 NSCLC, this compound showed a TGI of over 100 µM.
